Test system: sebaceous glands present in skin of the hamster ear
Assay: Hamster ear model: topical uptake of ICG into sebaceous glands (white light and fluorescence micrographs)
Assay type: in vivo
Settings: 24 hours, 810 nm illumination, 840 nm bandpass filter
Description: A chromophore is considered “selectively introduced” to sebaceous glands according to the invention if greater than or equal to about 90% of the chromophore remaining associated with the skin after removal of excess chromophore preparation from the skin surface is observed in sebaceous glands. The proportion of a particular chromophore localized to sebaceous glands from a particular chromophore preparation (e.g., chromophore in oil or chromophore in liposomes or lipid suspension) is determined using an appropriate animal model, such as the hamster ear model described herein. Hamsters are known to have sebaceous glands in their ears. These glands are typically on the order of 200 μm in diameter, making them somewhat larger than typical sebaceous glands in humans. Nonetheless, the hamster ear is a convenient and instructive model for human skin and sebaceous glands.
For example, the non-lipophilic chromophore indocyanine green was introduced to sebaceous glands present in skin of the hamster ear according to the following method. The lipid chromophore suspension was topically applied to hamster ears and allowed to travel into the pores and sebaceous glands for 24 hours. After this time, the hamsters were euthanized and their ears were examined for evidence of ICG in the sebaceous glands. […] ICG fluorescence (840 nm) is stimulated by irradiation with 810 nm light. […]

Structure (SMILES): CC1(C)C(/C=C/C=C/C=C/C=C2\N(CCCCS(=O)(=O)O)c3ccc4ccccc4c3C2(C)C)=[N+](CCCCS(=O)(=O)[O-])c2ccc3ccccc3c21 [indocyanine green]
- localization of chromophore in skin: present in the sebaceous glands but not in the tissue between the glands
